Measured values: US4954509A, “Isoquinoline derivatives and their use as analgesics” (Dr. Lo. Zambeletti S.p.A., priority 1988, dated 1990)
Counter-ions that a name gives are not always drawn. Like-named read-outs stand apart in the source and are kept apart here.

Legend:
mice [1] = experiment: tail-flick test in mice; format: in vivo, mouse (male Charles River, Swiss Strain); conditions: subcutaneous, calculated as the free base, 30 min pretreatment; for ED50: Mus musculus, sc, 0.5 h; for MOUSE TAIL-FLICK ED50: 30 min
Method: (B) Tail-flick test in mice
The methodology employed is based on that described by D'Amour and Smith, J. Pharmacol. Exp. Ther. 72, 74/1941.
Male Charles River mice (Swiss Strain), 22-34g body weight were used. Animals were allowed food and water ad libitum and were randomized into groups of 10 prior to experimentation.
Test compounds were dissolved in either distilled water or distilled water plus 0.1 M AMS and administered by the subcutaneous route in a final volume of 10 ml/Kg. Control animals received 10 ml/kg of the appropriate vehicle alone. Following a pretreatment period of 30 min., the mice were again placed under the heat source and the reaction tine re-determined.
Percentage quantal protection was determined as the number of mice in which the reaction time was doubled compared to pretreatment values, expressed as a percentage of the total number of mice in the group.

KAPPA opiate receptor = target: T1, KAPPA opiate receptor (Cavia porcellus, UniProt P41144); experiment: opiate receptors binding, KAPPA (3H-Ethyl Ketocyclazocine, guinea pig brain homogenate)
T1 construct: fresh guinea pig brain homogenate; from tissue; host or cells: guinea pig whole brain without cerebellum, fresh homogenate
Method: Radio receptor binding to μ and K sites is performed on fresh guinea pig brain homogenate prepared according to Kosterlitz. (1981).
(§1) Whole brain without cerebellum is homogenized in 50 mM, Tris-buffer (pH 7.4 at 0° C.) and centrifuged at 49,000×g×10 min.
The pellet is then resuspended in the same buffer, incubated at 37° C. for 45 min. and centrifuged again. 1.9ml of the final homogenate (1:100 in Tris-pH 7.4, 0° C.) is used for the binding assay. Binding to […] sites (Magnan J., 1982) 1 3H [D-Ala2, MePhe4, Gly-o15]Enkephalin (3H-DAGO), an
is determined in the presence of 10-6M Naloxone. 1 Binding to K sites (Magnan J., 1982)
The binding to the K-sites is performed using 3H-Ethyl Ketocyclazocine, a non-selective benzomorphan compound which binds to μ, δ and K-sites, in the presence of 100nM of unlabelled DAGO and 100nM of the enkephalin analogue [DAla^2 -DLeu^5 ]Enkephalin (DADLE), to prevent μ and δ binding respectively.
Final homogenate with solutions of the cold ligand and of the labelled ligand is incubated for 40 min. at 25° C., filtered through Whatman GF/C glass filter discs and washed.
The radioactivity bound to the filters is counted by liquid scintillation spectrophotometry.
The non-specific binding is determined in the presence of 500nM of the benzomorphan non-selective compound Mr 2266.
The equilibrium dissociation constant (KD) and the maximum binding capacity (Bmax) are determined from the analysis of saturation curves, while the inhibition constant (Ki) is determined from the analysis of competition experiments (Hill 1910; Scatchard 1949; Cheng and Prusoff 1973; Gillan et al. 1980).

mice [2] = experiment: p-phenylquinone-induced abdominal writhing test in mice; format: in vivo, mouse (male Charles River, Swiss Strain); conditions: Mus musculus, sc, 20 min; subcutaneous; calculated as the free base; 20 min pretreatment, p-phenylquinone 2 mg/Kg i.p.
Method: (A) P-phenylquinone-induced abdominal writhing test in mice
The methodology employed is based on that described by Sigmund et al, Proc. Soc. Exptl. Biol. 95, 729/1957, modified by Milne and Twomey, Agents and Actions, 10, 31/1980.
Male Charles River mice (Swiss Strain), 25-36g body weight, were used. Animals were allowed food and water ad libitum and were randomized into groups of 10 prior to experimentation. Test compounds were dissolved in either distilled water or distilled water plus 0.1 M AMS, and administered by the subcutaneous route in a final volume of 10 ml/Kg. Control animals received 10 ml/Kg of the appropriate vehicle alone. Following a pretreatment period of 20 min., mice were injected intraperitoneally with p-phenylquinone, 2 mg/Kg at 37° C. in a final volume of […]. […] During this period the number of abdominal writhing responses per animal were recorded where writhing consists of an intermittent contraction of the abdomen associated with hind leg extension.
The degree of antinociceptive protection afforded by the test compound was determined as the mean number of writhing responses observed in the treated group (T) expressed as a percentage of the mean number of writhing responses in the control group (C) according to the following formula:
[1-(T/C]×100%=% graded protection

MU opiate receptor = target: T2, MU opiate receptor (Cavia porcellus, UniProt A0ACM8Q262); experiment: opiate receptors binding, MU (3H-DAGO, guinea pig brain homogenate)
T2 construct: 3H-DAGO displacement
Method: Radio receptor binding to μ and K sites is performed on fresh guinea pig brain homogenate prepared according to Kosterlitz.
as §1
The pellet is then resuspended in the same buffer, incubated at 37° C. for 45 min. and centrifuged again. 1.9ml of the final homogenate (1:100 in Tris-pH 7.4, 0° C.) is used for the binding assay.
The filters are then dryed, solubilized in Filtercount and the radioactivity monitored. Non specific binding
is determined in the presence of 10-6M Naloxone.

[3] = read-out: OPIATE RECEPTORS BINDING MU Ki, fresh guinea pig brain homogenate, 25° C., 40 min
[4] = fresh guinea pig brain homogenate, 25° C., 40 min, read-out: OPIATE RECEPTORS BINDING MU Ki

T2 sequence (A0ACM8Q262 1-400): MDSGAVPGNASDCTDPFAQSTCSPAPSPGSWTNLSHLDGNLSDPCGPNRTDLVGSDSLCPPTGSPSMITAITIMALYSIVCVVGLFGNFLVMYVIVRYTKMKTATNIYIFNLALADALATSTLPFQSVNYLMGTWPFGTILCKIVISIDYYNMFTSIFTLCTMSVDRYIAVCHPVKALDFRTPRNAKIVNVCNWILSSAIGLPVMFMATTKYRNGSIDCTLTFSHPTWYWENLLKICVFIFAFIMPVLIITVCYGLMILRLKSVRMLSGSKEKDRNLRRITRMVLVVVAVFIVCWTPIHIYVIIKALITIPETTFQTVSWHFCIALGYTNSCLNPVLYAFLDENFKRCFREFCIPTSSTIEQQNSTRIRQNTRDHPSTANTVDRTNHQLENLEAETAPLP
T1 sequence (P41144 whole entry): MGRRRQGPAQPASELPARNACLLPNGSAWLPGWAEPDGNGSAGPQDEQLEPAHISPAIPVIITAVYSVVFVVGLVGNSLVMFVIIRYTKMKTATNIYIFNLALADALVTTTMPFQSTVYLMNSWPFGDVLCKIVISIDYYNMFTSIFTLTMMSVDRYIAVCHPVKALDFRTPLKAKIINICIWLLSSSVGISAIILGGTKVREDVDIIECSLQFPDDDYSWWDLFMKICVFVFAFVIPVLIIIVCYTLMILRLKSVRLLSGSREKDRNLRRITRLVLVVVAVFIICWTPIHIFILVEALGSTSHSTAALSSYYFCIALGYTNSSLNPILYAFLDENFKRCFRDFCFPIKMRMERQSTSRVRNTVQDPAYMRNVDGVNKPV

Row | Compound | ED50 (mice [1]) [mg/kg] | ED50 (mice [2]) [mg/kg] | also measured
1 | C[C@H]1Cc2ccccc2[C@H](CN2CCCC2)N1C(=O)Cc1ccc(Cl)c(Cl)c1 (relative stereo) [Example 2, 1-(pyrrolidin-1-yl)methyl-2-(3,4-dichlorophenyl)acetyl-3-methyl-1,2,3,4-tetrahydroisoquinoline hydrochloride hemihydrate acetone. Diastereoisomer TRANS] | > 1 |  | Ki (KAPPA opiate receptor; fresh guinea pig brain homogenate, 3H-Ethyl Ketocyclazocine with 100nM DAGO and 100nM DADLE, 25° C., 40 min, read-out: OPIATE RECEPTORS BINDING KAPPA Ki): 1 to 50 nM
2 | CC1CN(C(=O)Cc2ccc(Cl)c(Cl)c2)C(CN2CCCC2)c2ccccc21 (single isomer, unassigned) [Example 44, (-)-1-(pyrrolidin-1-yl)methyl-2-(3,4-dichlorophenyl)acetyl-4-methyl-1,2,3,4-tetrahydroisoquinoline D(-) tartrate] | 0.025 | 0.013 | Ki (MU opiate receptor; [3]): 56.5 nM
3 | O=C(Cc1ccc(Cl)c(Cl)c1)N1CCc2c(O)cccc2C1CN1CCCC1 (single isomer, unassigned; (-)) [Example 54, (-)-1-(pyrrolidin-1-yl)methyl-2-(3,4-dichlorophenyl)acetyl-5-hydroxy-1,2,3,4-tetrahydroisoquinoline hydrochloride] | 0.006 | 0.0022 | 
4 | CC1c2ccccc2C(CN2CCCC2)N(C(=O)Cc2ccc(Cl)c(Cl)c2)C1C (single isomer, unassigned; diastereoisomer b) [Example 46, 1-(pyrrolidin-1-yl)methyl-2-(3,4-dichlorophenyl)acetyl-3,4-dimethyl-1,2,3,4-tetrahydroisoquinoline diastereoisomer B] |  | 0.011 | MOUSE TAIL-FLICK ED50 (mice [1]): 0.048 mg/kg
5 | CC1c2ccccc2C(CN2CCCCC2)N(C(=O)Cc2ccc(Cl)c(Cl)c2)C1C (single isomer, unassigned; diastereoisomer b) [Example 49, 1-(piperidin-1-yl)methyl-2-(3,4-dichlorophenyl)acetyl-3,4-dimethyl-1,2,3,4-tetrahydroisoquinoline diastereoisomer B.] | 0.077 | 0.038 | 
6 | O=C(Cc1ccc(Cl)c(Cl)c1)N1CC(c2ccccc2)c2ccccc2C1CN1CCCC1 (single isomer, unassigned; diastereoisomer b) [Example 50, 1-(pyrrolidin-1-yl)methyl-2-(3,4-dichlorophenyl)acetyl-4-phenyl-1,2,3,4-tetrahydroisoquinoline hydrochloride monohydrate diastereoisomer B] | 20 |  | 
7 | CC1c2ccccc2C(CN2CCCC2)N(C(=O)Cc2ccc(Cl)c(Cl)c2)C1C (single isomer, unassigned; diastereoisomer c) [Example 47, 1-(pyrrolidin-1-yl)methyl-2-(3,4-dichlorophenyl)acetyl-3,4-dimethyl-1,2,3,4-tetrahydroisoquinoline hydrochloride diastereoisomer C] |  |  | MOUSE TAIL-FLICK ED50 (mice [1]): 8.9 mg/kg
8 | O=C(Cc1ccc(Cl)c(Cl)c1)N1CCc2c(Cl)cccc2C1CN1CCCC1 (stereo not shown) [Example 7, 1-(pyrrolidin-1-yl)methyl-2-(3,4-dichlorophenyl)acetyl-5-chloro-1,2,3,4-tetrahydroisoquinoline hydrochloride] | 0.836 |  | Ki (KAPPA opiate receptor): 43.6 nM; Ki (MU opiate receptor; [4]): 1580 nM
9 | CSc1cccc2c1CCN(C(=O)Cc1ccc(Cl)c(Cl)c1)C2CN1CCCC1 (stereo not shown) [Example 32, 1-(pyrrolidin-1-yl)methyl-2-(3,4-dichlorophenyl)acetyl-5-methylthio-1,2,3,4-tetrahydroisoquinoline hydrochloride] | 0.365 | 0.202 | Ki (MU opiate receptor; [4]): 442 nM
10 | COc1cccc2c1CCN(C(=O)Cc1ccc(C(F)(F)F)cc1)C2CN1CCCC1 (stereo not shown) [Example 33, 1-(pyrrolidin-1-yl)methyl-2-(4-trifluoromethylphenyl)acetyl5-methoxy-1,2,3,4-tetrahydroisoquinoline hydrochloride] | 0.306 | 0.06 | Ki (MU opiate receptor; [4]): 142 nM
11 | O=C(Cc1ccc(C(F)(F)F)cc1)N1CCc2c(O)cccc2C1CN1CCCC1 (stereo not shown) [Example 34, 1-(pyrrolidin-1-yl)methyl-2-(4-trifluoromethylphenyl)acetyl5-hydroxy-1,2,3,4-tetrahydroisoquinoline hydrochloride hemihydrate] | 0.011 | 0.0023 | Ki (MU opiate receptor; [3]): 0.59 nM
12 | COc1cccc2c1CCN(C(=O)Cc1ccc(C(F)(F)F)cc1)C2CN1CCCCC1 (stereo not shown) [Example 35, 1-(piperidin-1-yl)methyl-2-(4-trifluoromethylphenyl)acetyl5-methoxy-1,2,3,4-tetrahydroisoquinoline hydrochloride] | 0.689 | 0.204 | Ki (MU opiate receptor; [4]): ~1000 nM
13 | COc1cccc2c1CCN(C(=O)Cc1ccc(Cl)c(Cl)c1)C2CN1CCCCC1 (stereo not shown) [Example 36, 1-(piperidin-1-yl)methyl-2-(3,4-dichlorophenyl)acetyl-5-methoxy-1,2,3,4-tetrahydroisoquinoline hydrochloride] | 0.924 | 0.163 | Ki (MU opiate receptor; [4]): ~1000 nM
14 | O=C(Cc1ccc(C(F)(F)F)cc1)N1CCc2c(O)cccc2C1CN1CCCCC1 (stereo not shown) [Example 37, 1-(piperidin-1-yl)methyl-2-(4-trifluoromethylphenyl)acetyl5-hydroxy-1,2,3,4-tetrahydroisoquinoline hydrochloride] | 0.007 | 0.0013 | Ki (MU opiate receptor; [3]): 5.38 nM
15 | O=C(Cc1ccc(Cl)c(Cl)c1)N1CCc2c(O)cccc2C1CN1CCCCC1 (stereo not shown) [Example 38, 1-(piperidin-1-yl)methyl-2-(3,4-dichlorophenyl)acetyl-5-hydroxy-1,2,3,4-tetrahydroisoquinoline hydrochloride] | 0.01 | 0.004 | Ki (MU opiate receptor; [3]): 11.4 nM
16 | COc1ccc2c(c1OC)CCN(C(=O)Cc1ccc(Cl)c(Cl)c1)C2CN1CCCC1 (stereo not shown) [Example 39, 1-(pyrrolidin-1-yl)methyl-2-(3,4-dichlorophenyl)acetyl-5,6-dimethoxy-1,2,3,4-tetrahydroisoquinoline hydrochloride] | > 1 |  | 
17 | O=C(Cc1ccc(Cl)c(Cl)c1)N1CCc2c(ccc(O)c2O)C1CN1CCCC1 (stereo not shown) [Example 40, 1-(pyrrolidin-1-yl)methyl-2-(3,4-dichlorophenyl)acetyl-5,6-dihydroxy-1,2,3,4-tetrahydroisoquinoline hydrochloride] | 0.461 | 0.429 | Ki (MU opiate receptor; [3]): 49.2 nM
18 | CC(=O)Oc1cccc2c1CCN(C(=O)Cc1ccc(Cl)c(Cl)c1)C2CN1CCCC1 (stereo not shown) [Example 52, 1-(pyrrolidin-1-yl)methyl-2-(3,4-dichlorophenyl)acetyl-5-acetoxy-1,2,3,4-tetrahydroisoquinoline hydrochloride] | 0.024 | 0.005 | 
